# In publication PMC8773529 (Cancers, 2022):
# Experiments:
# Assay type in all cases: cell-based, human
# LNCaP cells [1] = assay: Apoptosis detection (Annexin V/7-AAD flow cytometry), LNCaP; conditions: IC50 concentration, 72 h, % of cells
# Experimental: (§1) Then, a commercially available kit (FITC:Annexin V Apoptosis Detection Kit I; BD Biosciences Pharmingen. San Jose, CA, USA) was used. The medium was removed from the plates and approximately 1 mL of PBS was added to the wells for rinsing, followed by 0.7 mL of trypsin, and left for 3 min. Then, the plate wells were washed twice with 0.5 mL PBS with 2% FBS and next the entire content of the given walls was transferred to test tubes. The tubes were centrifuged for 7 min in a centrifuge at 1700 rpm. The supernatant solution was removed. […] After this time, 0.4 mL of PBS with FBS was added to the tubes and mixed again. […] Annexin V-reactive cells, but not 7-AAD-reactive cells were in the early stage of apoptosis, while cells reactive with both reagents were in late-stage apoptosis or were dead.
# RWPE-1 cells [2] = assay: MTT assay, normal RWPE-1; conditions: mean ± SD
# Experimental: (§2) MTT analysis was performed as described previously.
# (§3) Cell absorbance results were substituted into the formula for the relative MTT level (%). It allows to calculate the viability of cells exposed to the test compounds. Cell viability is the percentage of MTT reduction in cells to which the test compounds were added compared to the control sample, where only the medium was added to the cells.
# (§4) The relative MTT level was calculated using the formula: life time [100%] = A/B × 100% where: A—the test sample absorbance; B—the control sample absorbance.
# (§5) The statistical analysis was performed using the Statistica 13.0 (StatSoft, Inc, Tulsa, OK, USA) program. Comparison between studied groups was performed by the paired Student’s t-test. Results were expressed as means ± SD, and considered statistically significant at p < 0.05. All data were calculated from 3 separate experiments. IC50 values were calculated using GraphPad Prism 6 software (GraphPad Software, San Diego, CA, USA).
# LNCaP cells [3] = assay: MTT assay, LNCaP; conditions: for IC50: 72 h, MTT, mean ± SD; for SI LNCaP: SI = IC50 normal cell line (RWPE-1)/IC50 cancer cell line
# Experimental: as §2, §3, §4, §5
# LNCaP cells [4] = assay: LDH test, LNCaP; conditions: 72 h; tested at 10-60 µM, concentration of quoted value not stated
# Experimental: (§6) Lactate dehydrogenase (LDH) as a cytosolic enzyme determined in culture medium is a marker of cell death. The LDH activity determination was performed after 72 h incubation of cells (1 × 10^4 cells per well) in 96-well plates with the selected conjugates of gradually decreasing concentration according to the procedure mentioned at earlier study by Chrzanowska et al.. The cytotoxicity of test compounds was expressed as % of LDH released from test cells. This parameter is calculated using the formula: cytotoxicity = [A test sample − A “low control”]/[A “high control” − A “low control”] where: A—absorbance, “Low control”—cells in DMEM medium with 2% FBS, “High control”—cells in DMEM with 2% FBS with 1% Triton X-100.
# DU-145 cells [5] = assay: MTT assay, DU-145; conditions: for IC50: MTT, 72 h, mean ± SD; for SI DU-145: SI = IC50 normal cell line (RWPE-1)/IC50 cancer cell line
# Experimental: as §2, §3, §4, §5
# DU145 cells = assay: LDH test, DU145; conditions: 72 h; tested at 10-60 µM, concentration of quoted value not stated
# Experimental: as §6
# RWPE-1 cells [6] = assay: Apoptosis detection (Annexin V/7-AAD flow cytometry), RWPE-1; conditions: IC50 concentration, 72 h, % of cells
# Experimental: as §1
# [7] = system: IL-6 release by DU145 cells; assay: Interleukin-6 ELISA, DU145; conditions: IC50 concentration, 72 h; control 134.475 pg/mL
# Experimental: (§7) The sandwich ELISA assay is used to confirm the presence of interleukin 6 (IL-6) in the test cell line supernatant. Interleukin IL-6 ELISA kit was purchased from Diaclone SAS (Besancon Cedex, France). […] Before starting the test, a standard curve was prepared. An amount of 100 μL of test supernatant samples from the RWPE-1, LNCaP and DU145 cell lines incubated with the tested compounds, control solutions and blank were added to the plate’s wells. Then, 50 µL of diluted biotinylated anti-human interleukin-6 antibody was added to each well. The prepared plate was incubated at room temperature for one hour. At the end of this time, the solution in the plate wells was decanted and rinsed with the washing solution. After repeating the procedure three times, 100 μL solution of streptavidin covalently bound to horseradish peroxidase (HRP) was added to the wells. Then, the plates were incubated for 30 min. The next step was to remove the solution and rinse the plates three times. After adding 100 μL of tetramethylbenzidine (TMB) solution to each well, the plates were incubated for 15 min in the dark. In order to stop the reaction, 100 μL of H2SO4 solution were added. The absorbance of the tested samples was read using a spectrophotometer at 450 nm (Microplate Spectrophotometer Thermo Scientific™ Multiskan™ GO).
# DU-145 cells [8] = assay: Apoptosis detection (Annexin V/7-AAD flow cytometry), DU-145; conditions: IC50 concentration, 72 h, % of cells
# Experimental: as §1
# [9] = system: IL-6 release by LNCaP cells; assay: Interleukin-6 ELISA, LNCaP; conditions: IC50 concentration, 72 h; control 40.1 pg/mL
# Experimental: as §7
# PC3 cells = assay: MTT assay, PC3; conditions: SI = IC50 normal cell line (RWPE-1)/IC50 cancer cell line
# Experimental: as §2, §3, §4, §5
"IC50 (LNCaP cells [3]; Homo sapiens, LNCaP) [µM]","IC50 (DU-145 cells [5]; Homo sapiens, DU-145, 72 h) [µM]",Compound,"Early Apoptosis (%), LNCaP (LNCaP cells [1]) [%]","Late apoptosis (%), LNCaP (LNCaP cells [1])","Late apoptosis (%), LNCaP (LNCaP cells [1]; listed as CP) [%]","IC50 (RWPE-1 cells [2]; Homo sapiens, RWPE-1, 72 h) [µM]",IC50 (LNCaP cells [3]) [µM],"released lactate dehydrogenase, LNCaP (LNCaP cells [4])",IC50 (DU-145 cells [5]) [µM],"released lactate dehydrogenase, DU145 (DU145 cells)","Early Apoptosis (%), RWPE-1 (RWPE-1 cells [6]) [%]","Late apoptosis (%), RWPE-1 (RWPE-1 cells [6]) [%]","IL-6 concentration, DU145 [7] [pg/mL]","Early Apoptosis (%), DU145 (DU-145 cells [8]) [%]","Late apoptosis (%), DU145 (DU-145 cells [8]) [%]","IL-6 concentration, LNCaP [9] [pg/mL]",SI PC3 (PC3 cells),IC50 (RWPE-1 cells [2]; 72 h) [µM],SI LNCaP (LNCaP cells [3]),SI DU-145 (DU-145 cells [5])
> 70,> 70,O=C(O)c1cn(C2CC2)c2cc(N3CCNCC3)c(F)cc2c1=O [Ciprofloxacin],26.8,did not affect the late apoptosis,0.7,72.1 ± 5.2,71.2 ± 3.8,18.5–24.6%,70.5 ± 3.6,18.5–24.6%,2.9,1.4,119.72,20.8,0.3,28.7,–,–,–,–
–,–,N.N.[Cl][Pt][Cl] [Cisplatin],–,–,–,–,1.78 ± 0.74,–,1.36 ± 0.69,–,–,–,–,–,–,–,1.78,2.69 ± 1.1,1.5,2
0.48 ± 0.21,0.59 ± 0.14,COc1cccc2c1C(=O)c1c(O)c3c(c(O)c1C2=O)C[C@@](O)(C(=O)CO)C[C@@H]3O[C@H]1C[C@H](N)[C@H](O)[C@H](C)O1 [Doxorubicin],–,–,–,0.65 ± 0.1,–,–,–,–,–,–,–,–,–,–,2,–,1.3,1.1
